Experimental findings from US9187458B2, “Cyanoquinoline derivatives” (Tianjin Hemay Bio-Tech Co., LTD., priority 2010, dated 2015) are described below.

One assay relates to A431 cells. As to the kind of experiment: A431 Cell Growth Inhibition Test (MTT Assay). It counts as cell-based, human. Particulars: for IC50 / inhibition at 1 µM: Homo sapiens; for IC50: A-431, 68 h incubation; for inhibition at 1 µM: A-431, 68 h, read-out: Growth Inhibition Ratio (%). The gist of the method:
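Cells seeded at 2500/well in DMEM/F12 with 10% FBS, grown overnight, then exposed to compound for 68 h at 37 °C, 5% CO2. Viability by MTT (0.5 mg/ml, 4 h), DMSO-solubilised, OD 490 nm; IC50 is concentration giving 50% growth inhibition relative to controls.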

Another assay deals with A549 cells. As to the kind of experiment: A549 Cell Growth Inhibition Test (MTT Assay). The format is cell-based. Particulars: Homo sapiens, 72 h incubation. In short, it runs like this:
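Human lung cancer A549 cells, seeded at 2500 cells per well, were exposed to compound for 72 h at 37° C., 5% CO2. Viability by MTT (0.5 mg/ml, 3 h), DMSO-dissolved, OD at 490 nm; IC50 fitted from inhibition ratio relative to controls.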

A further assay relates to NCI-H460 cells. The assay is described as follows: NCI-H460 Cell Growth Inhibition Test (MTT Assay). The format is cell-based. The settings on record: Homo sapiens, 72 h incubation. The gist of the method:
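Cells seeded at 2500 per well, left overnight, then exposed to compound for 72 h at 37 °C, 5% CO2. Viability by MTT (0.5 mg/ml, 3 h), DMSO-dissolved, OD 490 nm; inhibition ratio = (PC−n)/(PC−NC)×100%, IC50 from curve fit.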

A further assay deals with NCI-N87 cells. As to the kind of experiment: NCI-N87 Cell Growth Inhibition Test (MTT Assay). It counts as cell-based. The settings on record: Homo sapiens, 72 h incubation. The gist of the method: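 Human gastric carcinoma NCI-N87 cells at 17000 cells/well were exposed to compound for 72 h at 37° C, 5% CO2. MTT at 0.5 mg/ml in serum-free medium for 3 h, DMSO solubilisation, OD at 490 nm. Inhibition ratio = (PC−n)/(PC−NC)×100%; IC50 was fitted as 50% inhibition.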

In a further assay the test system is Fadu cells. The assay is described as follows: Fadu Cell Growth Inhibition Test (MTT Assay). It counts as cell-based. Particulars: Homo sapiens, 72 h incubation. In short, it runs like this: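 Fadu head and neck cancer cells in EMEM + 10% FBS, 6000 cells/well, dosed next day and incubated 72 h at 37 °C, 5% CO2. MTT 0.5 mg/ml for 3 h, DMSO solubilization, OD at 490 nm; inhibition ratio from positive and negative controls, IC50 from fitted curve.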

In a further assay the test system is AsPC-1 cells. The assay is described as follows: AsPC-1 Cell Growth Inhibition Test (MTT Assay). It counts as cell-based. Particulars: Homo sapiens, ASPC1, 72 h incubation. The gist of the method: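 Human pancreatic cancer AsPC-1 cells seeded at 8000 cells/well, incubated overnight, then exposed to compound for 72 h at 37 °C, 5% CO2. Viability read by MTT (0.5 mg/ml, 3 h), formazan dissolved in DMSO, OD at 490 nm. Inhibition ratio = (PC−n)/(PC−NC)×100%; IC50 = concentration giving 50% inhibition, curve-fitted.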

A further assay concerns SK-OV-3 cells. The assay is described as follows: SK-OV-3 Cell Growth Inhibition Test (MTT Assay). The format is cell-based. Particulars: Homo sapiens, 72 h incubation. In short, it runs like this:
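SK-OV-3 human ovarian cancer cells in McCoy's 5A/10% FBS were seeded at 4000 cells/well, then exposed to compound for 72 h at 37° C, 5% CO2. Viability was read by MTT (0.5 mg/ml, 3 h) and OD at 490 nm. IC50 = concentration giving 50% inhibition from fitted inhibition ratios.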

As a reminder, the IC50 is the concentration that gives 50% inhibition. Read a low IC50 as higher potency.

Turning to `CN(C)C/C=C/C(=O)Nc1cc2c(Nc3ccc(OCc4cccc(F)c4)c(Cl)c3)c(C#N)cnc2cc1OC1CCOC1` (stereo not drawn) [Example 9, (E)-N-(4-(4-(3-FLUOROBENZYLOXY)-3-CHLOROPHENYLAMINO)-3-CYANO-7-(TETRAHYDROFURAN-3-YL-OXY)QUINOLIN-6-YL)-4-(DIMETHYLAMINO)-BUT-2-ENAMIDE], the IC50 stood at 135 nM with A431 cells; 1700 nM in the assay with A549 cells; 1700 nM in the assay on NCI-H460 cells; 8.6 nM with NCI-N87 cells; 219 nM in the assay with Fadu cells; 458 nM in the assay on AsPC-1 cells. Also, in the assay with SK-OV-3 cells, the IC50 was found to be 469 nM. The “Growth Inhibition Ratio (%)” value with A431 cells (compound 1 μM, 68 h incubation) worked out at 90%.
On to `CN(C)C/C=C/C(=O)Nc1cc2c(Nc3ccc(OCc4ccccn4)c(Cl)c3)c(C#N)cnc2cc1O[C@H]1CCOC1` [Example 138, (S,E)-N-(4-(3-CHLORO-4-(PYRIDIN-2-YL-METHOXY)PHENYLAMINO)-3-CYANO-7-(TETRAHYDROFURAN-3-YL-OXY)QUINOLIN-6-YL)-4-(DIMETHYLAMINO)-BUT-2-ENAMIDE], for which the inhibition at 1 µM in the assay with A431 cells (compound 1 μM, 68 h incubation) is 89%. Further, the IC50 amounted to 62 nM in the assay on A431 cells; 1500 nM with A549 cells; 2200 nM in the assay with NCI-H460 cells; 4.4 nM in the assay on NCI-N87 cells; 101 nM with Fadu cells; 1000 nM in the assay with AsPC-1 cells. The compound also showed a 50% inhibitory concentration (IC50) in the assay with SK-OV-3 cells of 457 nM.
On to `CN(C)C/C=C/C(=O)Nc1cc2c(Nc3ccc(F)c(Cl)c3)c(C#N)cnc2cc1O[C@H]1CCOC1` [Example 142, (S,E)-N-(4-(3-CHLORO-4-FLUOROPHENYLAMINO)-3-CYANO-7-(TETRAHYDROFURAN-3-YL-OXY)QUINOLIN-6-YL)-4-(DIMETHYLAMINO)-BUT-2-ENAMIDE], for which, in the assay with A431 cells (compound 1 μM, 68 h incubation), the inhibition at 1 µM was 75%. Further, the IC50 in the assay with A431 cells amounted to 45 nM; in the assay with A549 cells it was 1500 nM; in the assay with NCI-H460 cells it was 1040 nM; with NCI-N87 cells it was 75 nM; in the assay with Fadu cells, 115 nM; in the assay with AsPC-1 cells, 1500 nM. The same compound returned a concentration for half-maximal inhibition (IC50) with SK-OV-3 cells of 553 nM.
